Experimental data from patent US6841366B1, “Biotin biosynthesis in bacillus subtilis” (DSM IP Assets B.V., priority 1993, dated 2005).

What was measured:
B. subtilis PY79 = experiment: Crystal of biotin analog on plates, growth inhibition; format: cell-based; settings: for Zones of killing around crystal: PY79, EMS1, EMS2 on TBAB, BIOS or MIN plates, after 24 h; for Growth inhibition around crystal, zones of clearing: EMS-mutagenized PY79, TBAB plates, overnight at 37° C.
Source text: Biotin analogs were used to select for strains that were deregulated for biotin production. Among the mutations sought were those in a potential homolog of the E. coli birA gene. However, it is expected that selection for resistance to biotin analogs can also yield strains with mutations in the operator site(s) of birA, or in genes encoding functions responsible for the transport of the analogs into the cell. Analog-resistant mutants can also contain a gene or genes that encode enzymes resistant to inhibitors including, but not limited to, feedback inhibitors. Several biotin analogs (homobiotin, α-dehydrobiotin, and 5(2-thienyl)pentanoic acid) were obtained from Nippon Roche KK (Kanagsua, Japan). Mutagenized cells of B. subtilis were plated on TBAB (Difco Tryptose Blood Agar Base, cat. no. 0232-01-9) plates containing a crystal of each biotin analog.
An additional 27 mutants were selected subsequently in similar plate screenings for their resistance to the analogs homobiotin (HB) and α-dehydrobiotin (α-DB). For this latter selection, B. subtilis PY79 cultures were subjected to mutagenesis with EMS in two independent experiments. […] Overnight cultures of PY79, EMS1, and EMS2 grown in rich medium were plated on TBAB (rich), BIOS (biotin free) or MIN (glucose-minimal) plates and a crystal of homobiotin or α-dehydrobiotin was placed on each of the plates. […] Individual colonies were picked from homobiotin plates or α-dehydrobiotin plates and restreaked on BIOS plates containing α-dehydrobiotin or homobiotin.

[1] = system: B. subtilis birA/azl^r strains; experiment: Screen of parents and Trp+ transductants for homobiotin resistance; format: cell-based; set-up: key to Homobiotin resistant/sensitive: R: resistant; S: sensitive
Source text: The birA mutation from either HB3 or α-DB16 was introduced into either PA3 or PA6 by a two step transduction process. First, PA3 and PA6 were made Trp^− by transduction with trpE::Tn917lac (Perkins and Youngman, (Proc. Nat'l Acad. Sci USA 83:140-144 (1986)) selecting for erythromycin resistance. The birA mutations were transduced from HB3 or α-DB16, selecting for Trp^+. Parents and Trp^+ transductants were screened for homobiotin resistance and azelaic acid resistance. PA6 was homobiotin sensitive, so double mutants could be identified among Trp^+ transductants by screening for homobiotin resistant colonies. Only about 60% of Trp^+ transductants were also homobiotin resistant (this may be due to Tn917 distortion of the map distance between birA and trpE normally 90% linkage by transduction). PA3 was resistant to homobiotin, so direct identification of double mutants was not possible. However, 60% of the transductants were double mutants as judged by increased biotin secretion, see below.

PY79 bioI::cat = experiment: Growth of bioI::cat mutants on biotin-free medium with supplements; format: cell-based, B. subtilis; settings: biotin 33 μg/ml
SPβ::bioW-lacZ = experiment: SPβ-borne single-copy bioW-lacZ translational fusion, β-galactosidase assay; format: cell-based, B. subtilis
Protocol: Other strains, in addition to the lacZ fusion strain of Example IVA, can be constructed for deciphering biotin regulatory mechanisms. For example, Applicants recognized that insertion of the plasmid-borne bioW-lacZ fusion into the chromosome causes technical problems because the integrated plasmid amplifies in copy number. Thus the expression of the bioW-lacZ fusion at single copy-number and at a site distinct from the bio operon was tested by introducing the fusion into a modified SPβ specialized transducing phage (see, e.g., Zuber et al., J. Bacteriol. 169:2223-2230, 1987, hereby incorporated by reference).
Two isolates of PY79 (SPβ::bioW-lacZ) and BI421 (SPβ::bioW-lacZ) were assayed for β-galactosidase activity as described above.
Biotin regulation was also examined in two independently isolated biotin analog-resistant mutants. HB3 contains a spontaneous birA mutation and α-DB9 contains an α-dehydrobiotin resistant mutation unlinked to either bio or birA. These strains were transduced, grown, and assayed as described above, except that α-DB9 (SPβ::bioW-lacZ) was assayed during mid-exponential growth.

[2] = system: B. subtilis PY79 and azelaic acid resistant mutants; experiment: Growth inhibition by azelaic acid, minimal agar; format: cell-based; settings: addition of 1 μg/l biotin
Source text: Azelaic acid, a straight chain C9 dicarboxylic acid, is a homolog of pimelic acid and is thought to be an intermediate in the conversion of oleic acid to pimelic acid (see Ohsugi and Inoue (1981) Agric. Biol. Chem. 45: 2355-2356, hereby incorporated by reference).
Seven spontaneous mutants that outgrew the background of PY79 on 2 g/l Azelaic acid were isolated. The resistance to azelaic acid appeared to be a stable trait in all but one case (see below). The seven mutants were provisionally named PA1-PA7 (PY79 Azelaic acid resistant). PA1 through PA7 were grown in test tubes in VY medium, and biotin production was assayed using E. coli indicator strains (Table 15). The mutants fell into two classes, those that yielded more biotin than PY79 (PA5, PA6) and those that were similar to PY79 (PA1, 2, 3, and 7). PA4 appeared to be either unstable or not a true mutant and was dropped from further study. Applicants also noticed that the mutants fell into two classes with respect to colony size on minimal agar with 2 g/l azelaic acid, and that these two classes corresponded to the two classes of biotin producers (Table 11). The mutants with the most biotin in the supernatant (PA5 and PA6) gave small colonies, while the biotin non-secreters, PA1, 2, 3, and 7, gave large colonies. PA1 and PA3 secreted a compound that cross-fed PY79 (i.e., reversed the azelaic acid inhibition of PY79) on minimal plates containing 2 g/l azelaic acid.

[3] = system: bioW-lacZ translational fusion; experiment: bioW-lacZ translational fusion integrated at the bio locus, β-galactosidase liquid ONPG assay; format: cell-based, B. subtilis
Source text: A translational lacZ fusion was constructed to confirm the activity and regulation of the putative promoter and regulatory region, and to assess the relative level of expression of the B. subtilis biotin operon in a variety of contexts. This was accomplished by inserting a 3.1 kb BamHI-BglII fragment containing a promoter-less lacZ coding region into the BamHI site of pBIO350, to give pBIO397 and pBIO398.
To test the bioW-lacZ fusion for biotin-regulated expression in B. subtilis, Bio^+ partial diploids were constructed. The cat cassette was cloned into pBIO397 using the single SmaI site located within the polylinker region downstream from the lacZ gene. One recombinant plasmid, pBIO397cat, with the cat gene oriented in the same direction as the translational fusion, was used to generate Bio^+ partial diploids. Competent cells of the prototrophic B. subtilis strain PY79 were transformed with pBIO397cat plasmid DNA selecting for Cm^r. Transformants should only arise by recombination into the chromosome. This leaves an intact copy of the bio operon, allowing activity of the lac fusion to be assessed in the absence of added biotin.
The promoter of the BamHI to PstI fragment cloned in pBIO350 is regulated by biotin. Two Cm^r Bio^+ partial diploids containing the bioW-lacZ fusion were tested for β-galactosidase activity in biotin-free medium in the presence or absence of biotin (100 μg/liter). In liquid ONPG assays, both strains were regulated specifically by biotin. The level of β-galactosidase was repressed in the presence of biotin and induced in its absence to 24 to 85-fold higher specific activity (Table 3). This strain with the bioW::lacZ fusion integrated at the bio operon has also been used to isolate new biotin analog-resistant mutants (see below) on X-gal indicator plates.

Structure (SMILES): O=C(O)CCCCC[C@@H]1SC[C@@H]2NC(=O)N[C@@H]21 [Homobiotin, homobiotin]
- Zones of killing around crystal (B. subtilis PY79): zones of killing were observed
- Homobiotin resistant/sensitive ([1]; parent PA3, birA donor HB3, isolate 1): R
- Homobiotin resistant/sensitive ([1]; parent PA3, birA donor HB3, isolate 2): R
- Homobiotin resistant/sensitive ([1]; parent PA3, birA donor α-DB16, isolate 1): R
- Homobiotin resistant/sensitive ([1]; parent PA6, birA donor HB3, isolate 2): R
- Homobiotin resistant/sensitive ([1]; parent PA6, birA donor HB3, isolate 6): R
- Homobiotin resistant/sensitive ([1]; parent PA6, birA donor α-DB16, isolate 8): R
- Homobiotin resistant/sensitive ([1]; parent PA6, birA donor α-DB16, isolate 14): R
- Homobiotin resistant/sensitive ([1]; strain HB3): R
- Homobiotin resistance of PA3 ([1]; strain PA3): resistant
- Homobiotin resistant/sensitive ([1]; strain PA3): R
- Homobiotin resistant/sensitive ([1]; strain PA6): S
- Homobiotin sensitivity of PA6 ([1]; strain PA6): sensitive
- Homobiotin resistant/sensitive ([1]; strain PY79): S
- Homobiotin resistant/sensitive ([1]; strain α-DB16): R

Structure (SMILES): O=C(O)CCCCc1cccs1 [5(2-thienyl) pentanoic acid, 5(2-thienyl)pentanoic acid]
- Growth inhibition around crystal, zones of clearing (B. subtilis PY79): inhibited the growth

Structure (SMILES): O=C(O)CCCC[C@@H]1SC[C@@H]2NC(=O)N[C@@H]21 [Biotin]
- Growth of bioI::cat insertion colonies (PY79 bioI::cat): grew to wild-type levels
- Fold Increase of β-galactosidase activity, −Biotin over +Biotin (100 μg/l) (SPβ::bioW-lacZ; BI421 (SPβ::bioW-lacZ)/#1 (birA)): 1.5 Fold
- β-galactosidase activity +Biotin (100 μg/l) (SPβ::bioW-lacZ; BI421 (SPβ::bioW-lacZ)/#1 (birA), OD600 1.00-0.936): 0.67 Miller Units
- Fold Increase of β-galactosidase activity, −Biotin over +Biotin (100 μg/l) (SPβ::bioW-lacZ; BI421 (SPβ::bioW-lacZ)/#3 (birA)): 0.9 Fold
- β-galactosidase activity +Biotin (100 μg/l) (SPβ::bioW-lacZ; BI421 (SPβ::bioW-lacZ)/#3 (birA), OD600 1.07-0.92): 0.96 Miller Units
- Fold Increase of β-galactosidase activity, −Biotin over +Biotin (100 μg/l) (SPβ::bioW-lacZ; HB3 (SPβ::bioW-lacZ)/#1 (birA)): 1.3 Fold
- β-galactosidase activity +Biotin (100 μg/l) (SPβ::bioW-lacZ; HB3 (SPβ::bioW-lacZ)/#1 (birA), OD600 1.068-1.076): 0.24 Miller Units
- Fold Increase of β-galactosidase activity, −Biotin over +Biotin (100 μg/l) (SPβ::bioW-lacZ; HB3 (SPβ::bioW-lacZ)/#3 (birA)): 0.8 Fold
- β-galactosidase activity +Biotin (100 μg/l) (SPβ::bioW-lacZ; HB3 (SPβ::bioW-lacZ)/#3 (birA), OD600 1.213-1.320): 0.18 Miller Units
- β-galactosidase repressed in the presence of biotin, induced in the absence of biotin (SPβ::bioW-lacZ; PY79 (SPβ::bioW-lacZ)): 9-15 fold
- Fold Increase of β-galactosidase activity, −Biotin over +Biotin (100 μg/l) (SPβ::bioW-lacZ; PY79 (SPβ::bioW-lacZ)/#1): 15 Fold
- β-galactosidase activity +Biotin (100 μg/l) (SPβ::bioW-lacZ; PY79 (SPβ::bioW-lacZ)/#1, OD600 1.04-1.08): 0.04 Miller Units
- Fold Increase of β-galactosidase activity, −Biotin over +Biotin (100 μg/l) (SPβ::bioW-lacZ; PY79 (SPβ::bioW-lacZ)/#3): 9 Fold
- β-galactosidase activity +Biotin (100 μg/l) (SPβ::bioW-lacZ; PY79 (SPβ::bioW-lacZ)/#3, OD600 0.988-0.960): 0.06 Miller Units
- Fold Increase of β-galactosidase activity, −Biotin over +Biotin (100 μg/l) (SPβ::bioW-lacZ; α-D89 (SPβ::bioW-lacZ)/#1): 9.2 Fold
- β-galactosidase activity +Biotin (100 μg/l) (SPβ::bioW-lacZ; α-D89 (SPβ::bioW-lacZ)/#1, OD600 0.892-0.528, one measurement): 0.18 Miller Units
- Fold Increase of β-galactosidase activity, −Biotin over +Biotin (100 μg/l) (SPβ::bioW-lacZ; α-D89 (SPβ::bioW-lacZ)/#3): 12.3 Fold
- β-galactosidase activity +Biotin (100 μg/l) (SPβ::bioW-lacZ; α-D89 (SPβ::bioW-lacZ)/#3, OD600 1.344-1.200): 0.11 Miller Units
- Reversal of azelaic acid growth inhibition of wild-type B. subtilis [2]: reversed
- Fold Increase of β-galactosidase activity, −Biotin over +Biotin (100 μg/l) ([3]; PY79(bioW-lacZ)12A, Late Log): 24 Fold
- β-galactosidase activity +Biotin (100 μg/l) ([3]; PY79(bioW-lacZ)12A, Late Log (OD600 0.7-0.8)): 0.47 Miller Units
- Fold Increase of β-galactosidase activity, −Biotin over +Biotin (100 μg/l) ([3]; PY79(bioW-lacZ)12A, Late Stationary): 53 Fold
- β-galactosidase activity +Biotin (100 μg/l) ([3]; PY79(bioW-lacZ)12A, Late Stationary (OD600 1.4-1.6)): 0.13 Miller Units
- Fold Increase of β-galactosidase activity, −Biotin over +Biotin (100 μg/l) ([3]; PY79(bioW-lacZ)12A, Stationary): 65 Fold
- β-galactosidase activity +Biotin (100 μg/l) ([3]; PY79(bioW-lacZ)12A, Stationary (OD600 1.1-1.4)): 0.17 Miller Units
- Fold Increase of β-galactosidase activity, −Biotin over +Biotin (100 μg/l) ([3]; PY79(bioW-lacZ)14A, Late Log): 33 Fold
- β-galactosidase activity +Biotin (100 μg/l) ([3]; PY79(bioW-lacZ)14A, Late Log (OD600 0.7--0.8)): 0.64 Miller Units
- Fold Increase of β-galactosidase activity, −Biotin over +Biotin (100 μg/l) ([3]; PY79(bioW-lacZ)14A, Late Stationary): 85 Fold
- β-galactosidase activity +Biotin (100 μg/l) ([3]; PY79(bioW-lacZ)14A, Late Stationary (OD600 1.213-1.320)): 0.10 Miller Units
- Fold Increase of β-galactosidase activity, −Biotin over +Biotin (100 μg/l) ([3]; PY79(bioW-lacZ)14A, Stationary): 82 Fold
- β-galactosidase activity +Biotin (100 μg/l) ([3]; PY79(bioW-lacZ)14A, Stationary (OD600 1.1-1.4)): 0.15 Miller Units

Structure (SMILES): O=C(O)/C=C/CCC1SCC2NC(=O)NC21 (stereo not drawn) [α-dehydrobiotin]
- Growth inhibition around crystal, zones of clearing (B. subtilis PY79): inhibited the growth
- Zones of killing around crystal (B. subtilis PY79): zones of killing were observed
